Values joined by “and” are separate entries in the source; they are usually repeats but may differ in a detail not shown here. Equal entries are not always repeated.
Columns and labels:
Format in all cases: in vivo, chicken chicks
Eimeria maxima = assay: Cage experiments coccidiosis/chicks, Eimeria maxima part of the mixed infection
Method: (§1) The efficacy of the compounds according to the invention can be confirmed, for example, in cage experiments using the following experimental arrangement, in which the animals are treated with the respective individual components and with the mixtures of the individual components.
(§2) An active compound-containing feed is prepared in such a way that the required amount of active compound is thoroughly mixed with a nutritionally balanced animal feed, e.g. with the chick feed indicated below.
(§3) 8 to 12 day-old male chicken chicks raised under coccidea-free conditions (e.g. LSL Brinkschulte/Senden) receive the compounds according to the invention (test substances) from 3 days before (day -3) the infection (=a.i.) until 8 (9) days after the infection (=p.i.) with the feed in the concentration indicated in ppm. Three animals are kept in each cage. Per dose, one to a number of groups of this type are employed. Infection is carried out by means of a stomach tube directly into the crop using approximately 100,000 sporulated oocysts of Eimeria acervulina and with in each case approximately 30,000 oocysts of E. maxima and 40,000 sporulated oocysts of E. tenella. These are highly virulent strains. The exact infectious dose is adjusted such that if possible one of three experimentally infected untreated chicks dies due to infection. For the assessment of the efficacy, the following criteria are taken into consideration: weight increase from the start of the experiment to the end of the experiment, death rate due to infection, macroscopic assessment of the faeces with respect to diarrhoea and excretion of blood on days 5 and 7 p.i. (grade 0 to 6), macroscopic grade of the intestinal mucous membrane, in particular of the cecums (grade 0 to 6) and the oocyst excretion and also the proportion (in %) of the oocysts sporulating within 24 hours. The number of oocysts in the faeces was determined with the aid of the McMaster counting chamber (see Engelbrecht and coworkers “Parasitologische Arbeitsmethoden in Medizin und Veterinärmedizin, [Parasitological working methods in medicine and veterinary medicine] Akademie-Verlag, Berlin (1965)). The individual findings are related to the untreated noninfected control groups and an overall grade is calculated (cf. A. Haberkorn (1986), pp. 263 to 270 in Research in Avian Coccidiosis ed L. R. McDougald, L. P. Joyner, P. L. Long Proceedings of the Georgia Coccidiosis Conference Nov, 18-20, 1985 Athens/Ga. USA).
(§4) In the columns “dropping scores”, “lesion score” and “oocyst control”, individual details of the action are given.

Eimeria tenella = assay: Cage experiments coccidiosis/chicks, Eimeria tenella part of the mixed infection
Method: as §1, §2, §3, §4

Eimeria acervulina = assay: Cage experiments coccidiosis/chicks, Eimeria acervulina part of the mixed infection
Method: as §1, §2, §3, §4

[1] = test system: Eimeria acervulina, Eimeria maxima and Eimeria tenella; assay: Cage experiments coccidiosis/chicks, mixed experimental infection
Method: as §1, §2, §3
In the column “ppm”, the concentration of the active compound employed in the feed is indicated in ppm.
In the column “mortality”, the percentage of the animals which have died is indicated under % and the number of the animals which have died/animals employed in the experiment is indicated under n.
In the column “weight % of not inf. control”, the ratio of the weight of the treated animals to the weight of the noninfected control group is indicated.
as §4
In the column “% efficacy”, the overall rating is assessed; 0% means no action, 100% means complete action.

Structure (SMILES): CO[C@@H]1[C@@H](OC)[C@H](C)[C@@](O)(CC(=O)O)O[C@H]1[C@H](C)[C@H]1O[C@@]2(CC[C@@](C)([C@H]3CC[C@@](C)([C@@H]4O[C@@H]([C@H]5O[C@](C)(O)[C@H](C)C[C@@H]5C)C[C@@H]4O[C@@H]4C[C@H](OC)[C@@H](OC)[C@H](C)O4)O3)O2)C[C@H](O)[C@H]1C [MAD, Maduramicin, reference compound]
- oocyst in % of inf. control max. (Eimeria maxima; 3 ppm in feed): 0%
- oocyst in % of inf. control max. (Eimeria maxima; MAD 1 ppm): 86 % of inf. control
- oocyst in % of inf. control max. (Eimeria maxima; MAD 2 ppm): >100 % of inf. control
- oocyst in % of inf. control max. (Eimeria maxima; MAD 3 ppm): 14 % of inf. control
- oocyst in % of inf. control ten. (Eimeria tenella; MAD 1 ppm): 56 % of inf. control
- oocyst in % of inf. control ten. (Eimeria tenella; MAD 2 ppm): 82 % of inf. control
- oocyst in % of inf. control ten. (Eimeria tenella; MAD 3 ppm): 6 % of inf. control
- oocyst in % of inf. control ac. (Eimeria acervulina; 1 ppm in feed): 60% and >100%
- oocyst in % of inf. control ac. (Eimeria acervulina; MAD 1 ppm): 39 % of inf. control
- oocyst in % of inf. control ac. (Eimeria acervulina; MAD 2 ppm): 27 % of inf. control
- oocyst in % of inf. control ac. (Eimeria acervulina; MAD 3 ppm): 11 % of inf. control
- % efficacy tot. ([1]; 1 ppm in feed): 38%
- mortality % ([1]; 1 ppm in feed): 0%
- mortality n (died/employed) ([1]; 1 ppm in feed): 0/3
- weight % of not inf. control ([1]; 1 ppm in feed): 77% and 56%
- lesion score ([1]; 1 ppm in feed, grade 0 to 6): 5 and 6
- % efficacy tot. ([1]; 2 ppm in feed): 55% and 32%
- mortality % ([1]; 2 ppm in feed): 0%
- mortality n (died/employed) ([1]; 2 ppm in feed): 0/3
- weight % of not inf. control ([1]; 2 ppm in feed): 74% and 60%
- lesion score ([1]; 2 ppm in feed, grade 0 to 6): 3 and 6
- % efficacy tot. ([1]; 3 ppm in feed): 61% and 93%
- mortality n (died/employed) ([1]; 3 ppm in feed): 0/3 and 1/3
- weight % of not inf. control ([1]; 3 ppm in feed): 76% and 92%
- dropping scores ([1]; 3 ppm in feed, grade 0 to 6): 0
- lesion score ([1]; 3 ppm in feed, grade 0 to 6): 1
- % efficay tot. ([1]; MAD 1 ppm): 7%
- dropping scores ([1]; MAD 1 ppm): 6
- lesion score ([1]; MAD 1 ppm): 6
- mortality % ([1]; MAD 1 ppm): 0%
- mortality n ([1]; MAD 1 ppm): 0/3
- oocyst in % of inf. control tot. ([1]; MAD 1 ppm): 29 % of inf. control
- weight % of not inf. control ([1]; MAD 1 ppm): 59 % of not inf. control
- % efficay tot. ([1]; MAD 2 ppm): 17%
- dropping scores ([1]; MAD 2 ppm): 6
- lesion score ([1]; MAD 2 ppm): 5
- mortality % ([1]; MAD 2 ppm): 0%
- mortality n ([1]; MAD 2 ppm): 0/3
- oocyst in % of inf. control tot. ([1]; MAD 2 ppm): 48 % of inf. control
- weight % of not inf. control ([1]; MAD 2 ppm): 63 % of not inf. control
- % efficay tot. ([1]; MAD 3 ppm): 60%
- dropping scores ([1]; MAD 3 ppm): 6
- lesion score ([1]; MAD 3 ppm): 2.7
- mortality % ([1]; MAD 3 ppm): 33%
- mortality n ([1]; MAD 3 ppm): 0/3
- oocyst in % of inf. control tot. ([1]; MAD 3 ppm): 9 % of inf. control
- weight % of not inf. control ([1]; MAD 3 ppm): 90 % of not inf. control

From US6569881B1, “Substituted benzimidazole, the production thereof and the use thereof as means against parasitic protozoa” (Bayer Aktiengesellschaft, priority 1999, dated 2003)
